Laboratory results taken from patent US20240090546A1, “COMPOSITIONS COMPRISING AND METHODS OF USING 1,3-PROPANEDIOL, TO IMPROVE SWEETNESS AND/OR REDUCE BITTERNESS OF SWEETENERS” (Primient Covation LLC, priority 2022, published 2024).

Assays:
Assay type in all cases: in vivo, human
[1] = test system: Six panelists experienced in the evaluation of food and beverages; experiment: Tasting of sweeteners with and without Zemea USP-FCC propanediol; conditions: sweetener with 5 ppm Zemea USP-FCC Propanediol versus without
Excerpt: Six panelists experienced in the evaluation of food and beverages tasted sweeteners and commercial beverages with and without the addition of Zemea USP-FCC propanediol. The six panelists tasted the products and discussed their perceptions of the flavor. They indicated whether the test or control product in each pair was sweeter, less bitter, and/or less sour.

40 untrained panelists = experiment: Paired comparison test for bitterness, reduced sugar stevia sweetened orange juice
Procedure: Paired comparison tests for bitterness were conducted on 40 untrained panelists. The reduced sugar stevia sweetened orange juice was used as the control and was prepared with 0.0005% Zemea® USP-FCC (5 ppm) as the test variable. The products were served in 2-ounce soufflé cups labeled with 3-digit codes at refrigerated temperatures. The panelists were asked to identify the sample that was more bitter. Bottled water and unsalted crackers were available for panelists to clear their palates before and during testing.

panelists [2] = experiment: Absolute taste threshold of Zemea USP-FCC PDO in water (flash profile, blind tasting); conditions: at 690 ppm (FEMA #4753 use limit for beverages)
Excerpt: (§1) • 1. Panelists: Recruit at least 5 and preferably 12 staff who has no allergy to the big 8 food allergens. • 2. Prototypes: • a. Freshly made to same age (<1 week if possible) • b. Serve all samples at same size (>1 oz for beverages), and at same temperature (70F for foods, 40F for beverages) • 3. Random coded (3-digit) and random ordered up to 5 samples • 4. Keep to less than 5 samples per panel session. Less than 4 panels/day. • 5. For each panelist, ship (under covid-19): • a. one set of 5 samples • b. one instruction (this page) ballot (attachment 1) and one example for how to fill in (attachment 2) • c. one bottled water (Aquafina or equivalent, no minerals added. Panelist to bring own under covid-19) • 6. […] Describe the panelists how to blind-taste same day upon receipt according to panelists instruction below. • 8. […] Ask each panelist to scan/send a picture of the filled-in ballot to panel leader. Panel leader will issue a “directional analysis” (1 day) as a minimum and may include PCA (3 days) leading to conclusions and recommendations.
(§2) Instruction for Flash Profiling Method panelists: • 1. […] Please taste this set mid-morning (9a-N) or mid-afternoon (2-4p) if possible • 3. Arrange the 5 samples in front of you in any order • 4. For the Flash Profiling Method ballot, fill in today's Date, your Name, and Sample (s) as “project xxx-Round x samples” • 5. […]

panelists [3] = experiment: Flash profile blind tasting of beverages and bitter substances with Zemea USP-FCC added; conditions: Zemea added at 5-940 ppm to the beverages and bitter substances of Table 1; blind tasting by N>6
Excerpt: as §1, §2

[4] = test system: Six panelists experienced in the evaluation of food and beverages; experiment: Screening of Zemea USP-FCC at 5, 20 and 100 ppm in reduced sugar stevia sweetened orange juice; conditions: 5 ppm, compared with 20 and 100 ppm and control
Excerpt: Six panelists experienced in the evaluation of food and beverages screened Zemea® USP-FCC at 5, 20, and 100 ppm in a reduced sugar stevia sweetened orange juice. The reduced sugar stevia sweetened orange juice containing no Zemea® USP-FCC was used as the control.

Compound: O=C(CO)C(O)C(O)C(O)CO (stereo not shown) [Allulose]
- Effect [1]: Enhanced sweetness

Compound: OC[C@@H](O)[C@@H](O)CO [Erythritol]
- Effect [1]: Enhanced sweetness

Compound: OC[C@H]1O[C@@](CO)(O[C@H]2O[C@H](CO)[C@@H](O)[C@H](O)[C@H]2O)[C@@H](O)[C@@H]1O [Sucrose, sucrose]
- Effect [1]: Enhanced sweetness

Compound: O=C(CO)[C@@H](O)[C@@H](O)[C@H](O)CO [Tagatose]
- Effect [1]: Enhanced sweetness

Compound: OCCCO [Zemea® USP-FCC Propanediol, 1,3-propanediol]
- number of 40 untrained panelists who identified the sample as more bitter (40 untrained panelists; 5 ppm (0.0005%) in stevia-sweetened orange juice, control chosen by 26, one-tailed exact p-value 0.04): 14
- bitterness versus control containing no Zemea USP-FCC (40 untrained panelists; 5 ppm added directly to reduced sugar orange juice with stevia, p-value 0.04, one-tailed): statistically less bitter
- taste of Zemea USP-FCC PDO (panelists [2]): tasteless
- bitterness of individual ingredients and beverages (panelists [3]): less bitter
- liking of individual ingredients and beverages (panelists [3]): more liked
- bitterness perception [4]: lowest bitterness perception
